Measurements published in ChEMBL document CHEMBL4359894, “Novel class of 7-Oxabicyclo[2.2.1]heptene sulfonamides with long alkyl chains displaying improved estrogen receptor α degradation activity” (Eur J Med Chem, 2019).
Calls of active or inactive are those of the source. The rule behind the calls is not given here.

How the values were obtained:
[1] = Therapeutic index, ratio of IC50 for cytotoxicity against human MCF10A cells to IC50 for antiproliferative activity against human MCF7 cells; assay type: toxicity, cell-based; settings: read-out: Ratio IC50
[2] = target: T1, Estrogen receptor (Homo sapiens) (UniProt P03372); assay: Binding affinity to ERalpha (unknown origin) by competitive fluorometric receptor binding assay relative to estradiol
T1 sequence (whole entry): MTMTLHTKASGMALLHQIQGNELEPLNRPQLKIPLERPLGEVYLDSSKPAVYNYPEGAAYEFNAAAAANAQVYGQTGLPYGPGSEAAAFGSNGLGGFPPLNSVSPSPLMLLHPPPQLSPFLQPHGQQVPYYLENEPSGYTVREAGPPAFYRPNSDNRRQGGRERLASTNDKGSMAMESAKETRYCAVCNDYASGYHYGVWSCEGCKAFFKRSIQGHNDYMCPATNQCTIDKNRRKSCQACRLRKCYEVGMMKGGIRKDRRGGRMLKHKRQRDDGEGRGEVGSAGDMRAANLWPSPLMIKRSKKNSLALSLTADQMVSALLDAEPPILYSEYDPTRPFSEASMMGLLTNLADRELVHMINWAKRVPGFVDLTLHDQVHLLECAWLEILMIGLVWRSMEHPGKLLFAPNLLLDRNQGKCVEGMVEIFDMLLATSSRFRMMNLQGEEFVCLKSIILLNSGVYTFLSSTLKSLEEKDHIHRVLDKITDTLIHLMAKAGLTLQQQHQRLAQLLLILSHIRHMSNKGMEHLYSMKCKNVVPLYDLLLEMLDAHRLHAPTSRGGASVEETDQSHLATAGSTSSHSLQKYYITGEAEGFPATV

MCF-10A = assay: Cytotoxicity against human MCF10A cell incubated for 72 hrs by MTT assay; assay type: cell-based
MCF7 = assay: Antiproliferative activity against human MCF7 cell incubated for 72 hrs by MTT assay; assay type: functional, cell-based; settings: MCF7, 72 h
[3] = target: Estrogen receptor beta (Homo sapiens) (UniProt Q92731); assay: Binding affinity to ERbeta (unknown origin) by competitive fluorometric receptor binding assay relative to estradiol
Estrogen receptor beta (Homo sapiens), sequence (Q92731 whole entry): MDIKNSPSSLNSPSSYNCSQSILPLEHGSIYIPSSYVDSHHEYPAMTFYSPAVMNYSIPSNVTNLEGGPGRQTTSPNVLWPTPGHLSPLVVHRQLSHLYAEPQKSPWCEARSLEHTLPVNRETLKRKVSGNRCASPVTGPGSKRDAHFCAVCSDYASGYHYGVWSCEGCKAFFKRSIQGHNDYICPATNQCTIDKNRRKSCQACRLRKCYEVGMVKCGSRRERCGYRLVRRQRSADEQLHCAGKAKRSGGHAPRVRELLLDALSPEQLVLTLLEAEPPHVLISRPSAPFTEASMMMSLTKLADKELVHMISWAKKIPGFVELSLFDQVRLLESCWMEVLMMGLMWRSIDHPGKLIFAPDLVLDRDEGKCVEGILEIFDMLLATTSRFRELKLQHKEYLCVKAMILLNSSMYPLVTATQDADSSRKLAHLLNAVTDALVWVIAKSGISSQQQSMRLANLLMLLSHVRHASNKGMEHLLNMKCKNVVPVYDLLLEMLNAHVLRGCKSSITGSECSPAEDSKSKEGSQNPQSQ

[4] = target: T1, Estrogen receptor (Homo sapiens); assay: Induction of ERalpha degradation in human MCF7 cells assessed as decrease in ERalpha protein expression at 5 uM incubated for 24 hrs by Western blot analysis relative to control; assay type: cell-based; design: scale not given: the % may be the effect or the level left

Structure (SMILES)	relative binding affinity (RBA) [2]	IC50 (MCF7) [µM]	relative binding affinity (RBA) [3]	Activity [4]	selectivity ratio [1]	IC50 (MCF-10A) [µM]
CCCCOc1ccc(C2=C(c3ccc(O)cc3)[C@H]3O[C@@H]2C[C@@H]3S(=O)(=O)N(CC)c2ccccc2)cc1 (relative stereo)	3.12	1.82	0.04	–	18	32.8
CCCCCCCCOc1ccc(C2=C(c3ccc(O)cc3)[C@H]3C[C@H](S(=O)(=O)N(CC)c4ccccc4)[C@@H]2O3)cc1 (racemic)	0.55	5.89	0.02	–	10	59.4
CCCCCCCCCCCCOc1ccc(C2=C(c3ccc(O)cc3)[C@H]3C[C@H](S(=O)(=O)N(CC(F)(F)F)c4ccc(OC)cc4)[C@@H]2O3)cc1 (relative stereo)	0.06	> 100	0.15	–	–	> 100
CCCCOc1ccc(C2=C(c3ccc(O)cc3)[C@H]3O[C@@H]2C[C@@H]3S(=O)(=O)N(CC(F)(F)F)c2ccc(OC)cc2)cc1 (relative stereo)	1.81	2.43	0.27	100%	32.2	78.3
CCCCCCCCCCCCOc1ccc(C2=C(c3ccc(O)cc3)[C@H]3O[C@@H]2C[C@@H]3S(=O)(=O)N(CC(F)(F)F)c2ccc(OC)cc2)cc1 (relative stereo)	0.32	86.7	0.01	–	> 1.1	> 100
CCCCCCCCOc1ccc(C2=C(c3ccc(O)cc3)[C@H]3O[C@@H]2C[C@@H]3S(=O)(=O)N(CC)c2ccccc2)cc1 (relative stereo)	1.03	1.16	0.05	–	29.8	34.6
CCCCCCOc1ccc(N(CC)S(=O)(=O)[C@H]2C[C@H]3O[C@@H]2C(c2ccc(O)cc2)=C3c2ccc(O)cc2)cc1 (relative stereo)	2.29	1.48	0.14	Active	24.6	36.5
CCCCCCOc1ccc(C2=C(c3ccc(O)cc3)[C@H]3C[C@H](S(=O)(=O)N(CC)c4ccccc4)[C@@H]2O3)cc1 (relative stereo)	2.99	3.45	0.35	–	> 28.9	> 100
CCCCCCCCCCOc1ccc(C2=C(c3ccc(O)cc3)[C@H]3C[C@H](S(=O)(=O)N(CC(F)(F)F)c4ccc(OC)cc4)[C@@H]2O3)cc1 (relative stereo)	0.85	31.8	0.6	–	> 3.1	> 100
CCCCCCOc1ccc(C2=C(c3ccc(O)cc3)[C@H]3O[C@@H]2C[C@@H]3S(=O)(=O)N(CC)c2ccccc2)cc1 (relative stereo)	2.51	0.97	0.53	–	43.9	42.6
CCCCOc1ccc(C2=C(c3ccc(O)cc3)[C@H]3C[C@H](S(=O)(=O)N(CC)c4ccccc4)[C@@H]2O3)cc1 (relative stereo)	3.26	3.29	0.05	–	17.9	59.2
CCCCCCCCCCOc1ccc(C2=C(c3ccc(O)cc3)[C@H]3O[C@@H]2C[C@@H]3S(=O)(=O)N(CC(F)(F)F)c2ccc(OC)cc2)cc1 (relative stereo)	1.35	25.3	0.02	–	> 3.9	> 100

More lines, main results first:

relative binding affinity (RBA) [2]	IC50 (MCF7) [µM]	relative binding affinity (RBA) [3]	Activity [4]	Structure (SMILES)	selectivity ratio [1]	IC50 (MCF-10A) [µM]
0.57	21.2	0.01	–	CCCCCCCCCCOc1ccc(C2=C(c3ccc(O)cc3)[C@H]3O[C@@H]2C[C@@H]3S(=O)(=O)N(CC(F)(F)F)c2ccc(Cl)cc2)cc1 (relative stereo)	> 4.7	> 100
1.53	1.78	0.24	100%	CCCCCOc1ccc(C2=C(c3ccc(O)cc3)[C@H]3O[C@@H]2C[C@@H]3S(=O)(=O)N(CC(F)(F)F)c2ccc(OC)cc2)cc1 (relative stereo)	> 56.1	> 100
2.36	5.22	0.04	–	CCCCCCCCOc1ccc(C2=C(c3ccc(O)cc3)[C@H]3C[C@H](S(=O)(=O)N(CC(F)(F)F)c4ccc(Cl)cc4)[C@@H]2O3)cc1 (relative stereo)	> 19.1	> 100
1.59	2.39	0.15	–	CCCCCCCCOc1ccc(C2=C(c3ccc(O)cc3)[C@H]3O[C@@H]2C[C@@H]3S(=O)(=O)N(CC(F)(F)F)c2ccc(OC)cc2)cc1 (relative stereo)	17.9	42.8
0.59	2.72	0.03	–	CCCCCCCCOc1ccc(C2=C(c3ccc(O)cc3)[C@H]3O[C@@H]2C[C@@H]3S(=O)(=O)N(CC(F)(F)F)c2ccc(Cl)cc2)cc1	30.9	84.2
0.25	51.2	0.11	–	CCCCCCCCCCOc1ccc(C2=C(c3ccc(O)cc3)[C@H]3C[C@H](S(=O)(=O)N(CC(F)(F)F)c4ccc(Cl)cc4)[C@@H]2O3)cc1 (relative stereo)	> 1.9	> 100
1.08	2.21	0.32	–	CCCCCCCCOc1ccc(C2=C(c3ccc(O)cc3)[C@H]3C[C@H](S(=O)(=O)N(CC(F)(F)F)c4ccc(OC)cc4)[C@@H]2O3)cc1 (relative stereo)	> 45.2	> 100
4.14	2.89	0.04	–	CCCCCCOc1ccc(C2=C(c3ccc(O)cc3)[C@H]3C[C@H](S(=O)(=O)N(CC(F)(F)F)c4ccc(Cl)cc4)[C@@H]2O3)cc1 (relative stereo)	19.8	57.5
4.25	2.95	0.05	–	CCCCOc1ccc(C2=C(c3ccc(O)cc3)[C@H]3C[C@H](S(=O)(=O)N(CC(F)(F)F)c4ccc(Cl)cc4)[C@@H]2O3)cc1 (relative stereo)	15.5	45.8
3.49	1.38	0.02	–	CCCCCCOc1ccc(C2=C(c3ccc(O)cc3)[C@H]3O[C@@H]2C[C@@H]3S(=O)(=O)N(CC(F)(F)F)c2ccc(Cl)cc2)cc1 (relative stereo)	28.7	39.7
1.13	3.22	0.16	–	CCCCOc1ccc(C2=C(c3ccc(O)cc3)[C@H]3O[C@@H]2C[C@@H]3S(=O)(=O)N(CC(F)(F)F)c2ccc(Cl)cc2)cc1 (relative stereo)	14.7	47.4
